Measurements taken from patent US20150017673A1, “COMPOSITIONS AND METHODS FOR DRUG-SENSITIZATION OR INHIBITION OF A CANCER CELL” (priority 2012, published 2015).

Columns and labels:
G3 cells [1] = experiment: Collagen invasion 3D assay, G3 cells; assay type: cell-based, human; settings: 10 uM Rifabutin in collagen matrix, 24 hours
Protocol: The effects of rifabutin on cell invasion was assessed in a collagen invasion 3D assay. Increased interest in the use of 3D culture systems has been motivated by accumulating evidence that 3D models better reflect the microenvironment of tumors and metastases and more accurately predict therapeutic response in vivo compared with conventional 2D assays. A collagen invasion 3D assay allows the rapid and quantitative assessment of invasiveness and a means to screen for drugs which alter the invasive phenotype of tumor cells.
The CHOP-resistant G3 cell line is much more invasive in a collage invasion 3D assay than its CHOP-sensitive parent cell line (CRL2631). Collagen matrices (1 mg/ml) were prepared as previously described in Su, S. C., et al., Molecular profile of endothelial invasion of three-dimensional collagen matrices: insights into angiogenic sprout induction in wound healing. Am. J. Physiol. […] Cell invasion density was quantified by counting fixed cultures under transmitted light using an Olympus CK2 inverted microscope equipped with eyepieces displaying a 10×10 ocular grid. For each condition, four random fields were selected and the number of invading cells per high power field (HPF) was counted manually at 10× magnification, corresponding to 1 mm^2 area. […]

ROS in G3 lymphoma cells = experiment: Intracellular ROS (CellROX, flow cytometry) in G3 cells; assay type: cell-based, human; settings: 10 uM rifabutin over time
Protocol: Cells were then stained with the fluorescent ROS indicator, CellROX, and subjected to flow cytometry to quantitate total intracellular ROS.
The electron transport chain (ETC) is known to be a primary generator of ROS in the cell. Most of the ROS is generated by Complexes I and III of the ETC Inhibition of Complex I results in electrons piling up and leaking to react with oxygen to produce ROS.
All samples were analyzed at the same time in flow cytometry.

[2] = tested on: G3 CHOP-resistant NHL cells
Protocol: In a first efficacy study, 6-8 week old female SCID mice (7 mice per treatment arm) were injected subcutaneously on both flanks with 1×10^7 G3 CHOP-resistant NHL cells. Once palpable tumors (about […] size) appeared, therapies (CHOP or CHOP+rifabutin) were started. CHOP was administered at the maximum tolerated dose (cyclophosphamide, 40 mg/kg i.v.; doxorubicin, 3.3 mg/kg i.v.; vincristine, 0.5 mg/kg i.v.; and prednisone, 0.2 mg/kg orally daily for 5 d) weekly for 3 weeks. Rifabutin in an amount of 100 mg/kg was administered on the day of each CHOP treatment and 24-hours later by gavage. Mouse body weight and tumor size were monitored every two days and tumor size measured by caliper. The tumor volume formula (L*W*W)/2 was used to calculate tumor mass.
A second efficacy study was conducted where mice were treated before the appearance of palpable tumors. In that experiment, one week after transplantation of CHOP-resistant G3 cells, one group (7 mice) was treated with CHOP-only and a second group (8 mice) was treated with CHOP+rifabutin.
A third study was conducted in which mice injected with CHOP-resistant G3 cells received reduced dosages of CHOP in combination with 33 mg/kg rifabutin. CHOP+rifabutin was administered weekly beginning one week post-inoculation. Control mice were given no CHOP or rifabutin.
SCID mice were injected with CHOP-resistant G3 cells in the same manner as the first efficacy study above. Treatments began 2 weeks post-inoculation and were administered twice weekly.

G3 cells [3] = experiment: Modified Boyden chamber invasion assay, G3 cells; assay type: cell-based, human; settings: 10 μM rifabutin 24 hours; DMSO 170,374
Protocol: (§1) A modified Boyden chamber assay was used as an independent method to evaluate rifabutin's ability to suppress invasion/metastasis. […] Cell invasion was assessed with a Chemicon QCM Collagen Invasion Assay (Millipore). The assay is a 96-well plate assay wherein each well is equipped with a suspended insert. Inserts contain an 8-micron membrane coated with a thin layer of polymerized collagen. Invading cells migrate through the collagen layer and attach to the bottom of the membrane. Cells were detached from the membrane and lysed prior to detection via CyQuant dye. Fluorescence intensity is proportional to number of invading cells. […] In CRL2631 cells RLU decreases from 39,356 to 27,432 RLU in the presence of rifabutin (p<0.05).

[4] = tested on: primary human fibroblasts; settings: with and without 2 uM Dox
[5] = tested on: multi-drug-resistant breast cancer cell line MDA-MB-231; experiment: Cell growth assay on MDA-MB-231 cells; assay type: cell-based; settings: MDA-MB-231, breast carcinoma
Protocol: Compositions were tested on CHOP-resistant G3 NHL cells that had been cultivated in RPMI medium for five days. Prior to assay, the cells were counted by haemocytometer and cell concentration standardized to 625,000 cells/ml. Test drugs were solubilized in 100% DMSO and then diluted to final assay concentration with 0.1M phosphate buffered saline (PBS) and a final DMSO concentration of 0.5%. Cells were added to assay plates containing the test drugs (rifabutin+148 ng/ml, 74 ng/ml, 37 ng/ml, or 0 ng/ml doxorubicin) and allowed to incubate for 96 hours at 37° C. and 5% CO2. The metabolic dye rezasurin was added to the wells of the assay plate at a final concentration of 20 μg/ml and the plates were incubated for an additional 24 hours. The plates were then read in a BMG Polarstar plate reader at wavelength (573-605) and the data plotted as OD versus increasing dilutions (i.e. decreasing total amounts) of rifabutin derivative concentration.
In these experiments, the following cell lines were used: CHOP-resistant NHL cell line G3, CHOP-sensitive NHL cell line CRL2631, the multi-drug resistant sarcoma cell line MES-SA-Dx5; multi-drug-resistant breast cancer cell line MDA-MB-231, multi-drug resistant ovarian carcinoma cell line SK-OV3, multi-drug resistant ovarian cancer cell line NCI/ADR-RES, drug-sensitive ovarian cancer cell line OVCAR-5, and multi-drug resistant ovarian cancer cell line OVCAR-3.
Additional cell lines used include: ovarian cancer OVCAR-8, T lymphoblastoid leukemia MOLT-4, dexamethasone-resistant multiple myeloma MM.1R, myeloid leukemia cells HL-60, osteosarcoma cells U-2 OS, and myeloma RPMI 8226.

ABCB1 pumps = ABCB1 pumps (Homo sapiens, UniProt P08183); settings: NCI/ADR-RES and G3 cells
CRL2631 cells = experiment: Modified Boyden chamber invasion assay, CRL2631 cells; assay type: cell-based, human; settings: 10 μM rifabutin 24 hours; DMSO 39,356
Protocol: as §1

Sequence of ABCB1 pumps (P08183 whole entry): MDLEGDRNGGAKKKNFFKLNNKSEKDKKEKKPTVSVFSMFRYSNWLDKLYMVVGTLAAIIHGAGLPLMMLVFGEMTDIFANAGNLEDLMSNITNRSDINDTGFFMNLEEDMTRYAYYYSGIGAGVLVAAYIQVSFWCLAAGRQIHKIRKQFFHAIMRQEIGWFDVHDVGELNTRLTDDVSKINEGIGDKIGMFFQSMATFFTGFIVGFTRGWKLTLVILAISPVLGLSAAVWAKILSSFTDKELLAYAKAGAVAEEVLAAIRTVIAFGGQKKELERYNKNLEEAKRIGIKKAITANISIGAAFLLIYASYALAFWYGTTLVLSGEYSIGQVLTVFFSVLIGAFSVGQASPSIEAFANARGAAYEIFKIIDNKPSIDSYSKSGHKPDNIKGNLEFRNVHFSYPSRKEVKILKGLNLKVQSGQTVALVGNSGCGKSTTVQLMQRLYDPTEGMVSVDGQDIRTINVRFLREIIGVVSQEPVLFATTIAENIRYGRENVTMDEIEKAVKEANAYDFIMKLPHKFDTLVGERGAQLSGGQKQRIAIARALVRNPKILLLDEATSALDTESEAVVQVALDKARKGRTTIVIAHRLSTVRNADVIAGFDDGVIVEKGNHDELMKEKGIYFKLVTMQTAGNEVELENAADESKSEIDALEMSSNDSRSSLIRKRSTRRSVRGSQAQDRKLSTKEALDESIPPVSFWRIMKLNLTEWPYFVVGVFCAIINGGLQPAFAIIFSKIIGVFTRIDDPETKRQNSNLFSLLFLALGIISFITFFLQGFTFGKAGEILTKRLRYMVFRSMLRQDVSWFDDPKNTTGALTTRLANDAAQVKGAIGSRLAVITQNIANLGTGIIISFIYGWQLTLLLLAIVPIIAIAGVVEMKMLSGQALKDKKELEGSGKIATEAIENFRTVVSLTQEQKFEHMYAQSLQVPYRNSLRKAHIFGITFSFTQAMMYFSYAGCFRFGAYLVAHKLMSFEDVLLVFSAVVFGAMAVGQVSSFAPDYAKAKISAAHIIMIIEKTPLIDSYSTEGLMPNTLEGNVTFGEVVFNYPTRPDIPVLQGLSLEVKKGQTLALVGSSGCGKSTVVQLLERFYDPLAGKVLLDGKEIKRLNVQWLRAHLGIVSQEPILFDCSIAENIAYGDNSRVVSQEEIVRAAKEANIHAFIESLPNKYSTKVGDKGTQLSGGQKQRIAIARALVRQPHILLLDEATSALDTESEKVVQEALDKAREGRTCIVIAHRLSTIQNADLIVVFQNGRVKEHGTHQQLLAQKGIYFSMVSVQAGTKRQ

## CO[C@H]1/C=C/O[C@@]2(C)Oc3c(C)c(O)c4c(c3C2=O)C2=NC3(CCN(CC(C)C)CC3)NC2=C(NC(=O)/C(C)=C\C=C\[C@H](C)[C@H](O)[C@@H](C)[C@@H](O)[C@@H](C)[C@H](OC(C)=O)[C@@H]1C)C4=O [Rifabutin, rifabutin]
G3 cells [1]
  reduction of invasion: up to 30%
ROS in G3 lymphoma cells
  ROS induction: rapidly induces ROS
[2]; first study, rifabutin 100 mg/kg by gavage with CHOP at maximum tolerated dose weekly for 3 weeks, versus CHOP only
  overall tumor burden per mouse: much lower
[2]; mouse, in vivo
  toxicity of the rifabutin dosage in the mice: little or not toxicity
[2]; second study, treated before palpable tumors, CHOP+rifabutin group, 6 of 16 sites
  injection sites that developed tumors: 37.5%
[2]; third study, reduced dosages of CHOP with 33 mg/kg rifabutin weekly, versus untreated mice
  tumor load: significantly less
G3 cells [3]
  relative fluorescence (invading cells): 114,395 RLU
[4]
  comparative cytotoxicity to normal cells: not toxic to normal cells
[5]
  Magnitude of potentiation in combination with doxorubicin: +++ (potentiation greater than 5 fold increase)
ABCB1 pumps
  inhibition of efflux pumps: clear inhibition of efflux pumps
CRL2631 cells
  relative fluorescence (invading cells): 27,432 RLU
